Results reported in publication PMC12367851, “In vitro CB1 receptor activity of halogenated indazole synthetic cannabinoid receptor agonists” (Archives of Toxicology, 2025).
pEC50: −log10 of the molar value. Read-outs that look alike come from different tables or passages of the source.

Key:
[1] = molecular target: human CB1 receptor (Homo sapiens, UniProt P21554); test: AequoScreen CB1 assay (intracellular Ca2+ release, CHO-K1 cells, apoaequorin/Gα16); details: for Emax: CHO-K1, read-out: Efficacy (% of JWH-018) Emax; for Efficacy (Emax) Mean Diff: Brown-Forsythe and Welch ANOVA; for fold difference of each other (potency): brominated SCRAs with pent-4-enyl, butyl and pentyl tails; for fold less potent than the butyl (ADB-5′Br-BUTINACA): brominated ADB SCRAs with different tails; for fold weaker in potency than JWH-018: EC50 ratio vs JWH-018
[2] = molecular target: CB1 receptor; design: method as in Deventer et al. [2023b]; details: AequoScreen / Ca2+ release assay, ref Deventer et al. [2023b], cited from earlier work; for pEC50: read-out: EC50
[3] = molecular target: CB1 receptor; details: β-arrestin 2 recruitment, cited from earlier work; for pEC50: read-out: EC50
[4] = Compound 1 vs Compound 2 = ADB-5’Cl-BUTINACA
[5] = Compound 1 vs Compound 2 = ADB-BUTINACA
[6] = Compound 1 vs Compound 2 = MDMB-5’F-BUTINACA
[7] = EC50 ratio vs non-halogenated analog ADB-BUTINACA
[8] = Compound 1 vs Compound 2 = ADB-4en-5’Br-PINACA
[9] = Compound 1 vs Compound 2 = MDMB-4en-5’Br-PINACA (also printed MDMB-5’Br-4en-PINACA)
[10] = Compound 1 vs Compound 2 = MDMB-5’Cl-BUTINACA
[11] = Compound 1 vs Compound 2 = MDMB-BUTINACA
[12] = Compound 1 vs Compound 2 = MMB-5’Cl-BUTINACA
[13] = Compound 1 vs Compound 2 = ADB-5’Br-FUBINACA
[14] = Compound 1 vs Compound 2 = ADB-5’Br-PINACA
[15] = Compound 1 vs Compound 2 = ADB-5’F-BUTINACA
[16] = Compound 1 vs Compound 2 = MDMB-5’Br-BUTINACA
[17] = Compound 1 vs Compound 2 = AB-5’Cl-BUTINACA
[18] = Compound 1 vs Compound 2 = MMB-5’F-BUTINACA
[19] = Compound 1 vs Compound 2 = ADB-5’Br-BUTINACA
[20] = Compound 1 vs Compound 2 = MDMB-INACA

Sequence of human CB1 receptor (P21554 whole entry): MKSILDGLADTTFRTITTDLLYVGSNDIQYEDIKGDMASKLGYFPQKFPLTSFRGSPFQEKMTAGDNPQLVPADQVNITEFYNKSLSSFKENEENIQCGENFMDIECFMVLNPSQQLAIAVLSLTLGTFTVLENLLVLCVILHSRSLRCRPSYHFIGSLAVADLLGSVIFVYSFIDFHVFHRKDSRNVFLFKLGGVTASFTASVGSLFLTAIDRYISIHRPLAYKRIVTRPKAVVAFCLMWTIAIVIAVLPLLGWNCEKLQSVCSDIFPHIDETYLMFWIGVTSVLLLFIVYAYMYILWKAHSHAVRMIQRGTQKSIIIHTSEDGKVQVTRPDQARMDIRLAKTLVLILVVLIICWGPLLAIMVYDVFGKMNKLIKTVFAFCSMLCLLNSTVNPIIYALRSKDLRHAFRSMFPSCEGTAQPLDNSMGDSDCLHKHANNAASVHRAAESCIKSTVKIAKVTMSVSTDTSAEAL

For `CCCCn1nc(C(=O)NC(C(N)=O)C(C)(C)C)c2cc(F)ccc21` (stereo not drawn) [ADB-5′F-BUTINACA], the pEC50 [1] was 7.84, the Emax [1] was 113% and the “Efficacy (Emax) Mean Diff” value [1, 4] was 0.36. For the same molecule, the “Efficacy (Emax) Mean Diff” value [1, 5] was -12.47, the “Efficacy (Emax) Mean Diff” value [1, 6] was 1.89 and the “fold more potent than ADB-BUTINACA” value [1, 7] was 1.5 fold. The pEC50 [2] was 7.74 and the pEC50 ([3]; ref Deventer et al. [2023b]) was 7.54.

For `CC(C)(C)[C@H](NC(=O)c1n[nH]c2ccccc12)C(N)=O` [ADB-INACA, reference compound], the EC50 [2] is given as “did not reach saturation” and the EC50 ([3]; ref Deventer et al. [2023b]) is given as “did not reach saturation”.

For `C=CCCCn1nc(C(=O)NC(C(=O)OC)C(C)(C)C)c2cc(Br)ccc21` (stereo not drawn) [MDMB-4en-5′Br-PINACA, methyl 2-{[5-bromo-1-(pent-4-en-1-yl)−1H-indazole-3-carbonyl]amino}−3,3-dimethylbutanoate], the pEC50 [1] was 7.35, the Emax [1] was 120% and the “Efficacy (Emax) Mean Diff” value ([1]; Compound 1 vs Compound 2 = MDMB-4en-PINACA) was 11.19. The “fold less potent than MDMB-4en-PINACA” value ([1]; EC50 ratio vs non-halogenated analog MDMB-4en-PINACA) was 2.5 fold and the “fold difference of each other (potency)” value [1] was ≤ 1.4 fold.

In the case of `CCCCCn1nc(C(=O)NC(C(N)=O)C(C)(C)C)c2cc(Br)ccc21` (stereo not drawn) [ADB-5′Br-PINACA, N-(1-amino-3,3-dimethyl-1-oxobutan-2-yl)−5-bromo-1-pentyl-1H-indazole-3-carboxamide], the pEC50 [1] was 7.70, the Emax [1] was 108% and the “Efficacy (Emax) Mean Diff” value [1, 8] was -3.10. For the same molecule, the “fold difference of each other (potency)” value [1] was ≤ 1.4 fold.

In the case of `CCCCn1nc(C(=O)NC(C(=O)OC)C(C)(C)C)c2cc(Br)ccc21` (stereo not drawn) [MDMB-5′Br-BUTINACA], the pEC50 [1] was 7.37, the Emax [1] was 114% and the “Efficacy (Emax) Mean Diff” value [1, 9] was -6.38. For the same molecule, the “Efficacy (Emax) Mean Diff” value [1, 10] was 3.79, the “Efficacy (Emax) Mean Diff” value [1, 6] was 2.52 and the “Efficacy (Emax) Mean Diff” value [1, 11] was -7.53. For the same molecule, the “fold less potent than MDMB-BUTINACA” value ([1]; EC50 ratio vs non-halogenated analog MDMB-BUTINACA) was 4.8 fold and the “fold difference of each other (potency)” value [1] was ≤ 1.4 fold.

In the case of `CCCCn1nc(C(=O)NC(C(N)=O)C(C)(C)C)c2cc(Cl)ccc21` (stereo not drawn) [ADB-5′Cl-BUTINACA], the pEC50 [1] was 7.52, the Emax [1] was 113% and the “Efficacy (Emax) Mean Diff” value [1, 5] was -12.82. For the same molecule, the “Efficacy (Emax) Mean Diff” value [1, 10] was 2.80 and the “fold less potent than ADB-BUTINACA” value [1, 7] was 1.4 fold.

In the case of `CCCCn1nc(C(=O)NC(C(N)=O)C(C)C)c2cc(Cl)ccc21` (stereo not drawn) [AB-5′Cl-BUTINACA], the pEC50 [1] was 7.24, the Emax [1] was 112% and the “Efficacy (Emax) Mean Diff” value [1, 4] was -0.67. For the same molecule, the “Efficacy (Emax) Mean Diff” value [1, 10] was 2.14 and the “Efficacy (Emax) Mean Diff” value [1, 12] was 2.74.

For `CCCCn1nc(C(=O)NC(C(N)=O)C(C)(C)C)c2cc(Br)ccc21` (stereo not drawn) [ADB-5′Br-BUTINACA, N-[1-amino-3,3-dimethyl-1-oxobutan-2-yl]−5-bromo-1-butyl-1H-indazole-3-carboxamide], the pEC50 [1] was 7.74, the Emax [1] was 110% and the “Efficacy (Emax) Mean Diff” value [1, 8] was -1.26. The “Efficacy (Emax) Mean Diff” value [1, 13] was -2.30, the “Efficacy (Emax) Mean Diff” value [1, 14] was 1.84 and the “Efficacy (Emax) Mean Diff” value [1, 4] was -2.84. The “Efficacy (Emax) Mean Diff” value [1, 15] was -3.19, the “Efficacy (Emax) Mean Diff” value [1, 5] was -15.66 and the “Efficacy (Emax) Mean Diff” value [1, 16] was -3.82. The “fold more potent than ADB-BUTINACA” value [1, 7] was 1.2 fold, the “fold difference of each other (potency)” value [1] was ≤ 1.4 fold and the pEC50 [2] was 7.90. The pEC50 ([3]; ref Deventer et al. [2023b]) was 7.09.

With `CCCCn1nc(C(=O)NC(C(N)=O)C(C)C)c2cc(F)ccc21` (stereo not drawn) [AB-5′F-BUTINACA] the pEC50 [1] was 7.73, the Emax [1] was 107% and the “Efficacy (Emax) Mean Diff” value [1, 17] was -4.99. For the same molecule, the “Efficacy (Emax) Mean Diff” value [1, 15] was -6.01, the “Efficacy (Emax) Mean Diff” value [1, 6] was -4.12 and the “Efficacy (Emax) Mean Diff” value [1, 18] was 0.24.

For `CCCCn1nc(C(=O)NC(C(=O)OC)C(C)(C)C)c2cc(F)ccc21` (stereo not drawn) [MDMB-5′F-BUTINACA], the pEC50 [1] was 8.24, the Emax [1] was 111% and the “Efficacy (Emax) Mean Diff” value [1, 10] was 1.27. For the same molecule, the “Efficacy (Emax) Mean Diff” value [1, 11] was -10.05.

For `CCCCn1nc(C(=O)NC(C(N)=O)C(C)C)c2cc(Br)ccc21` (stereo not drawn) [AB-5′Br-BUTINACA], the pEC50 [1] was 7.35, the Emax [1] was 115% and the “Efficacy (Emax) Mean Diff” value [1, 17] was 2.92. For the same molecule, the “Efficacy (Emax) Mean Diff” value ([1]; Compound 1 vs Compound 2 = AB-5’F-BUTINACA) was 7.90, the “Efficacy (Emax) Mean Diff” value [1, 19] was 5.08 and the “Efficacy (Emax) Mean Diff” value [1, 16] was 1.26. For the same molecule, the “Efficacy (Emax) Mean Diff” value ([1]; Compound 1 vs Compound 2 = MMB-5’Br-BUTINACA) was 9.47.

In the case of `CC(C)(C)C(NC(=O)c1nn(Cc2ccc(F)cc2)c2ccc(Br)cc12)C(N)=O` (stereo not drawn) [ADB-5′Br-FUBINACA], the pEC50 [1] was 7.38, the Emax [1] was 112% and the “Efficacy (Emax) Mean Diff” value [1, 8] was 1.04. For the same molecule, the “Efficacy (Emax) Mean Diff” value [1, 14] was 4.13 and the “fold less potent than the butyl (ADB-5′Br-BUTINACA)” value ([1]; EC50 ratio) was 2.3 fold.

Molecule `C=CCCCn1nc(C(=O)NC(C(=O)OC)C(C)(C)C)c2ccccc21` (stereo not drawn) [MDMB-4en-PINACA, reference compound] has a pEC50 [1] of 7.75 and an Emax [1] of 109%.

For `CCCCn1nc(C(=O)NC(C(=O)OC)C(C)C)c2cc(Cl)ccc21` (stereo not drawn) [MMB-5′Cl-BUTINACA], the pEC50 [1] was 6.83, the Emax [1] was 109% and the “Efficacy (Emax) Mean Diff” value [1, 4] was -3.40. For the same molecule, the “Efficacy (Emax) Mean Diff” value [1, 10] was -0.60.

For `CCCCn1nc(C(=O)NC(C(=O)OC)C(C)(C)C)c2cc(Cl)ccc21` (stereo not drawn) [MDMB-5′Cl-BUTINACA], the pEC50 [1] was 7.97, the Emax [1] was 110% and the “Efficacy (Emax) Mean Diff” value [1, 11] was -11.32.

For `CCCCn1nc(C(=O)NC(C(=O)OC)C(C)C)c2cc(F)ccc21` (stereo not drawn) [MMB-5′F-BUTINACA], the pEC50 [1] was 7.58, the Emax [1] was 107% and the “Efficacy (Emax) Mean Diff” value [1, 15] was -6.25. For the same molecule, the “Efficacy (Emax) Mean Diff” value [1, 6] was -4.36 and the “Efficacy (Emax) Mean Diff” value [1, 12] was -2.49.

In the case of `C=CCCCn1nc(C(=O)NC(C(N)=O)C(C)(C)C)c2cc(Br)ccc21` (stereo not drawn) [ADB-4en-5′Br-PINACA, N-(1-amino-3,3-dimethyl-1-oxobutan-2-yl)−5-bromo-1-(pent-4-en-1-yl)−1H-indazole-3-carboxamide], the pEC50 [1] was 7.85, the Emax [1] was 111% and the “Efficacy (Emax) Mean Diff” value [1, 9] was -8.94. The “fold difference of each other (potency)” value [1] was ≤ 1.4 fold.

In the case of `CCCCn1nc(C(=O)NC(C(N)=O)C(C)(C)C)c2ccccc21` (stereo not drawn) [ADB-BUTINACA, reference compound], the pEC50 [1] is listed as 7.67, the Emax [1] is listed as 126% and the pEC50 [2] is listed as 7.94. For the same molecule, the pEC50 ([3]; ref Sparkes et al. [2022]) was 8.11.

With `CCCCn1nc(C(=O)NC(C(=O)OC)C(C)(C)C)c2ccccc21` (stereo not drawn) [MDMB-BUTINACA, reference compound] the pEC50 [1] was 8.05 and the Emax [1] was 121%.

In the case of `CCCCn1nc(C(=O)NC(C(=O)OC)C(C)C)c2cc(Br)ccc21` (stereo not drawn) [MMB-5′Br-BUTINACA], the pEC50 [1] was 6.59, the Emax [1] was 105% and the “Efficacy (Emax) Mean Diff” value [1, 19] was -4.38. For the same molecule, the “Efficacy (Emax) Mean Diff” value [1, 12] was -3.81 and the “Efficacy (Emax) Mean Diff” value [1, 18] was -1.32.

`COC(=O)C(NC(=O)c1n[nH]c2ccccc12)C(C)(C)C` (stereo not drawn) [MDMB-INACA, reference compound] showed a pEC50 [1] of 5.43 and an Emax [1] of 112%.

With `CCCCCCCCCCn1nc(C(=O)NC(C(N)=O)C(C)(C)C)c2cc(Br)ccc21` (stereo not drawn) [N-(1-amino-3,3-dimethyl-1-oxobutan-2-yl)−5-bromo-1-decyl-1H-indazole-3-carboxamide] the “Potency (EC50, nM)” value ([1]; three-parameter logistic fit, n ≥ 3, triplicate, racemic standards) was “not even reaching saturation”.

With `CC(C)(C)C(NC(=O)c1n[nH]c2ccc(Br)cc12)C(N)=O` (stereo not drawn) [ADB-5′Br-INACA, N-[1-amino-3,3-dimethyl-1-oxobutan-2-yl]−5-bromo-1H-indazole-3-carboxamide] the pEC50 [1] was 5.64, the Emax [1] was 111% and the “Efficacy (Emax) Mean Diff” value [1, 8] was -0.21. For the same molecule, the “Efficacy (Emax) Mean Diff” value [1, 19] was 1.04, the “Efficacy (Emax) Mean Diff” value [1, 13] was -1.25 and the “Efficacy (Emax) Mean Diff” value [1, 14] was 2.88. The “fold weaker in potency than JWH-018” value [1] was 100 fold and the “fold less potent than the butyl (ADB-5′Br-BUTINACA)” value ([1]; EC50 ratio) was 127 fold.

For `COC(=O)C(NC(=O)c1n[nH]c2ccc(C)cc12)C(C)(C)C` (stereo not drawn) [MDMB-5′Me-INACA, methyl 3,3-dimethyl-2-[(5-methyl-1H-indazole-3-carbonyl)amino]butanoate], the pEC50 [1] was 5.86, the Emax [1] was 113% and the “Efficacy (Emax) Mean Diff” value ([1]; Compound 1 vs Compound 2 = MDMB-5’Br-INACA) was 3.46. The “Efficacy (Emax) Mean Diff” value [1, 20] was 1.15, the “fold more potent than MDMB-5′Br-INACA” value ([1]; EC50 ratio, tail-less SCRAs) was 1.6 fold and the “fold more potent than MDMB-INACA” value ([1]; EC50 ratio, tail-less SCRAs) was 2.7 fold.

For `COC(=O)C(NC(=O)c1n[nH]c2ccc(Br)cc12)C(C)(C)C` (stereo not drawn) [MDMB-5′Br-INACA, methyl 2-[5-bromo-1H-indazole-3-carboxamido]−3,3-dimethylbutanoate], the pEC50 [1] was 5.66, the Emax [1] was 110% and the “Efficacy (Emax) Mean Diff” value [1, 20] was -2.31. For the same molecule, the “fold weaker in potency than JWH-018” value [1] was 100 fold and the “fold more potent than MDMB-INACA” value ([1]; EC50 ratio, tail-less SCRAs) was 1.7 fold.
